Measurements as given in patent publication US20240016781A1, “TREATMENT OF KRAS MUTANT CANCERS” (MEI Pharma, Inc., priority 2020, published 2024).
Read-outs that look alike come from different tables or passages of the source.

Key:
HCT-116 (CRC, KRAS G13D) = assay: Murine xenograft tumor growth inhibition, HCT-116; type: in vivo, SCID mice; conditions: HCT-116 xenograft; orally 50, 100, or 200 mg/kg OD for 11-14 days; all doses
Protocol: (§1) Voruciclib is an oral inhibitor of CDKs 9, 4, 6, and 1 currently being tested in Phase 1B clinical trials for B-cell malignancies and acute myeloid leukemia. Voruciclib inhibition of CDK9 leads to decreased expression of transcriptional targets of RNA Pol II, such as Mcl1 and MYC. To test whether Voruciclib could be effective in cancers driven by dysregulated KRAS-MYC signaling, ˜20 cancer cell lines with KRAS mutations (G12A, G12C, G12D, G12S, G12V, G13C, G13D, Q61H) were treated in preclinical studies with Voruciclib. MTS and Cell Titer Glo assays were used to monitor growth in vitro. […] To investigate MYC protein stability, MIA PACA-2 (G12C) cells were treated with 4 μM Voruciclib for 5-240 min, followed by SDS-PAGE and Western Blotting analysis with α-MYC and α-pSer62-MYC antibodies. […] A 60% decrease in pSer62 was observed after 5 min that reached 80% by 60 min. […] The ability of Voruciclib to inhibit tumor growth in vivo was also tested in murine xenograft models. KRAS mutant human cancer cells HCT-116 (CRC, KRAS G13D), SW-480 (CRC, KRAS G12V), and H-460 (NSCLC, KRAS Q61H) were injected subcutaneously into SCID mice. Once tumors reached 5-10 mm in diameter, Voruciclib or vehicle were administered orally at 50, 100, or 200 mg/kg OD for 11-14 days. Tumors were measured every 2-3 days, and growth inhibition relative to control was calculated. […]

SW-480 (CRC, KRAS G12V) = assay: Murine xenograft tumor growth inhibition, SW-480; type: in vivo, SCID mice; conditions: SW-480 xenograft; orally 50, 100, or 200 mg/kg OD for 11-14 days; all doses
Protocol: as §1

H-460 (NSCLC, KRAS Q61H) = assay: Murine xenograft tumor growth inhibition, H-460; type: in vivo, SCID mice; conditions: H-460 xenograft; orally 50, 100, or 200 mg/kg OD for 11-14 days; all doses
Protocol: as §1

Solid Tumors = assay: Monotherapy Phase 1 study in solid tumors, daily continuously schedule; type: in vivo, human
[1] = PK of voruciclib, daily dosing continuously (Table 4); type: in vivo; conditions: human, plasma, oral; for Vd/F: read-out: Vz/F; for half-life: read-out: t½ (converted); for Tmax: median
Description: (§2) Voruciclib half life is designated as t½ in the tables (expressed in hours).
(§3) Voruciclib volume of distribution is designated as Vz/F (expressed in liters).

clinical = conditions: human, in vivo
Description: as §2, §3

[2] = SCID, mouse, in vivo, po, 100 mg/kg
Protocol: (§4) Animals were randomized into 2 groups when tumors reached 100 mm diameter. Group A assigned single dosing. […] Drug concentration was measured in tumor and plasma after last dose at the following time points: 0, 4, 8, 24, 48, 72 hrs. […] Concentration of voruciclib in plasma is in units of μg/ml and in μg/g for tumors.

in vivo = conditions: SCID, mouse
Protocol: as §4

[3] = Daily continuously schedule, 75 to 500 mg, 39 pts
[4] = 75 mg, Day 1, daily dosing continuously, mean
[5] = 75 mg, Day 15, daily dosing continuously, mean
[6] = 150 mg, Day 1, daily dosing continuously, mean
[7] = 150 mg, Day 15, daily dosing continuously, n = 1
[8] = 250 mg, Day 1, daily dosing continuously, mean
[9] = 250 mg, Day 15, daily dosing continuously, mean
[10] = 350 mg, Day 1, daily dosing continuously, mean
[11] = 350 mg, Day 15, daily dosing continuously, mean
[12] = 500 mg, Day 1, daily dosing continuously, mean
[13] = 500 mg, Day 15, daily dosing continuously, mean

AUC(0-inf) [1, 4]: 3420 ng·h/mL
Cmax [1, 4]: 125 ng/mL
AUC(0-t) ([1]; 75 mg, Day 1, daily dosing continuously, mean, read-out: AUC0-24): 1730 ng·h/mL
AUC(0-t) ([1]; 75 mg, Day 1, daily dosing continuously, mean, read-out: AUC0-t): 1730 ng·h/mL
Vd/F [1, 4]: 860 L
half-life [1, 4]: 21.8 h
Tmax ([1]; 75 mg, Day 1, daily dosing continuously): 4 h
AUC(0-inf) [1, 5]: 27200 ng·h/mL
Cmax [1, 5]: 331 ng/mL
AUC(0-t) ([1]; 75 mg, Day 15, daily dosing continuously, mean, read-out: AUC0-24): 5570 ng·h/mL
AUC(0-t) ([1]; 75 mg, Day 15, daily dosing continuously, mean, read-out: AUC0-t): 5570 ng·h/mL
Vd/F [1, 5]: 982 L
half-life [1, 5]: 359 h
Tmax ([1]; 75 mg, Day 15, daily dosing continuously): 2 h
AUC(0-inf) [1, 6]: 15600 ng·h/mL
Cmax [1, 6]: 258 ng/mL
AUC(0-t) ([1]; 150 mg, Day 1, daily dosing continuously, mean, read-out: AUC0-24): 4850 ng·h/mL
AUC(0-t) ([1]; 150 mg, Day 1, daily dosing continuously, mean, read-out: AUC0-t): 4850 ng·h/mL
Vd/F [1, 6]: 579 L
half-life [1, 6]: 39.6 h
Tmax ([1]; 150 mg, Day 1, daily dosing continuously): 6 h
Cmax ([1]; 150 mg, Day 15, daily dosing continuously, mean): 755 ng/mL
AUC(0-t) ([1]; 150 mg, Day 15, daily dosing continuously, mean, read-out: AUC0-24): 16600 ng·h/mL
AUC(0-t) ([1]; 150 mg, Day 15, daily dosing continuously, mean, read-out: AUC0-t): 16600 ng·h/mL
Tmax ([1]; 150 mg, Day 15, daily dosing continuously): 6 h
AUC(0-inf) [1, 7]: 164000 ng·h/mL
Vd/F [1, 7]: 174 L
half-life [1, 7]: 132 h
AUC(0-inf) [1, 8]: 16400 ng·h/mL
Cmax [1, 8]: 472 ng/mL
AUC(0-t) ([1]; 250 mg, Day 1, daily dosing continuously, mean, read-out: AUC0-24): 6110 ng·h/mL
AUC(0-t) ([1]; 250 mg, Day 1, daily dosing continuously, mean, read-out: AUC0-t): 6110 ng·h/mL
Vd/F [1, 8]: 766 L
half-life [1, 8]: 34.4 h
Tmax ([1]; 250 mg, Day 1, daily dosing continuously): 4 h
AUC(0-inf) [1, 9]: 54500 ng·h/mL
Cmax [1, 9]: 1050 ng/mL
AUC(0-t) ([1]; 250 mg, Day 15, daily dosing continuously, mean, read-out: AUC0-24): 18500 ng·h/mL
AUC(0-t) ([1]; 250 mg, Day 15, daily dosing continuously, mean, read-out: AUC0-t): 18500 ng·h/mL
Vd/F [1, 9]: 259 L
half-life [1, 9]: 38.8 h
Tmax ([1]; 250 mg, Day 15, daily dosing continuously): 4 h
AUC(0-inf) [1, 10]: 134000 ng·h/mL
Cmax [1, 10]: 623 ng/mL
AUC(0-t) ([1]; 350 mg, Day 1, daily dosing continuously, mean, read-out: AUC0-24): 10400 ng·h/mL
AUC(0-t) ([1]; 350 mg, Day 1, daily dosing continuously, mean, read-out: AUC0-t): 10400 ng·h/mL
Vd/F [1, 10]: 155 L
half-life [1, 10]: 129 h
Tmax ([1]; 350 mg, Day 1, daily dosing continuously): 6 h
AUC(0-inf) [1, 11]: 164000 ng·h/mL
Cmax [1, 11]: 1490 ng/mL
AUC(0-t) ([1]; 350 mg, Day 15, daily dosing continuously, mean, read-out: AUC0-24): 26700 ng·h/mL
AUC(0-t) ([1]; 350 mg, Day 15, daily dosing continuously, mean, read-out: AUC0-t): 26700 ng·h/mL
Vd/F [1, 11]: 77.6 L
half-life [1, 11]: 72.5 h
Tmax ([1]; 350 mg, Day 15, daily dosing continuously): 4 h
AUC(0-inf) [1, 12]: 41000 ng·h/mL
Cmax [1, 12]: 1140 ng/mL
AUC(0-t) ([1]; 500 mg, Day 1, daily dosing continuously, mean, read-out: AUC0-24): 16400 ng·h/mL
AUC(0-t) ([1]; 500 mg, Day 1, daily dosing continuously, mean, read-out: AUC0-t): 16400 ng·h/mL
Vd/F [1, 12]: 72.5 L
half-life [1, 12]: 24.8 h
Tmax ([1]; 500 mg, Day 1, daily dosing continuously): 6 h
AUC(0-inf) [1, 13]: 108000 ng·h/mL
Cmax [1, 13]: 2250 ng/mL
AUC(0-t) ([1]; 500 mg, Day 15, daily dosing continuously, mean, read-out: AUC0-24): 40500 ng·h/mL
AUC(0-t) ([1]; 500 mg, Day 15, daily dosing continuously, mean, read-out: AUC0-t): 40500 ng·h/mL
Vd/F [1, 13]: 51 L
half-life [1, 13]: 42.4 h
Tmax ([1]; 500 mg, Day 15, daily dosing continuously): 2 h
additional time to clear from the tissue after it clears the plasma (clinical): 3 days
time for the drug to be eliminated from the plasma after stopping (clinical): 5 to 10 days
volume of distribution (clinical): High volume of distribution
volume of distribution relative to blood volume (clinical): ~60 times
half-life (clinical; Half life): 24 to 28 h
voruciclib level in tumor at 8 hours compared to 24 hours post dosing [2]: > 5 fold
Kp (in vivo): > 5
Structure (SMILES): CN1CC[C@@H](c2c(O)cc(O)c3c(=O)cc(-c4ccc(C(F)(F)F)cc4Cl)oc23)[C@@H]1CO [Voruciclib, (+)-trans-2-(2-Chloro-4-trifluoromethylphenyl)-5,7-dihydroxy-8-(2-hydroxymethyl-1-methylpyrrolidin-3-yl)-chromen-4-one]
tumor growth inhibition relative to control (HCT-116 (CRC, KRAS G13D)): > 50%
tumor growth inhibition relative to control (SW-480 (CRC, KRAS G12V)): > 50%
tumor growth inhibition relative to control (H-460 (NSCLC, KRAS Q61H)): > 50%
best response (Solid Tumors; [3]): 12 SD lasting a median of 15 weeks
disease control rate (Solid Tumors; [3]): 31%
patients with decreased c-MYC expression (Solid Tumors; Phase 1 daily dosing study, 17/25 patients tested): 68%
